Tested on: Human prostate cancer cell lines (PC-3 cells)
Assay: Measurement of cell death-inducing activity (Test Example 1)
Format: cell-based
Details: PC-3, 48 h, 48 hours after addition, tested at 10, 1, 0.1, 0.025 and 0.00625 μmol/L, qualitative evaluation of 10 fields, read-out: Concentration showing the cell death-inducing activity (cell death-inducing rate not less than 40%)
Summary of the method: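 Compound treatment lasted 48 h at 10 to 0.00625 μmol/L (five levels, DMSO as control) on PC-3 cells pre-cultured 48 h at 37 °C, 5% CO2 after seeding at 1×10^5 cells/well. A cell death-inducing rate of 40% or more counted as active.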

Compound | minimal effective concentration [µM]
Cc1cc(/C=N/NC(=O)c2snc(-c3ccc(Cl)cc3Cl)c2N)cc(C)c1O [Example 27-15, 4-Amino-3-(2,4-dichlorophenyl)isothiazole-5-carboxylic acid[1-(4-hydroxy-3,5-dimethylphenyl)methylidene]hydrazide] | 10
COc1cc(Cl)ccc1-c1cc(NC(=O)OCc2ccc3c(c2)ncn3C)n(C)c1 [Example 10-2, [4-(4-Chloro-2-methoxyphenyl)-1-methyl-1H-pyrrol-2-yl]carbamic acid 1-methyl-1H-benzimidazol-5-ylmethyl ester] | 1
Cc1nc(-c2ccccc2)sc1NC(=O)OCc1ccc2c(c1)ncn2C [Example 9-32] | 1
COc1ccc(/C=N/NC(=O)c2sc(-c3ccccc3O)nc2C)cc1O [Example 23-57] | 10
COc1ccc(/C=N/NC(=O)c2sc(-c3cccc(C)c3C)nc2C)cc1O [Example 23-22] | 1
COc1cc(F)ccc1-c1nc(C)c(NC(=O)OCc2ccc3c(c2)nc2n3CCCC2)s1 [Example 9-111] | 0.1
COc1cc(Cl)ccc1-c1nc(C)c(C(=O)N/N=C/c2ccc(O)c(C)c2)s1 [Example 23-76] | 1
Cc1ccccc1-c1cc(NC(=O)OCc2ccc3c(c2)nc(C)n3C)n(C)n1 [Example 9-238] | 10
COc1ccc(/C=N/NC(=O)c2sc(-c3cc(C)ccc3C)nc2C)cc1O [Example 23-126] | 1
COc1ccc(CN(C)NC(=O)c2sc(-c3ccc(OC)cc3Cl)nc2C)cc1 [Example 16-9] | 10
COc1ccc(-c2nc(C)c(C(=O)N/N=C/c3cc(C)c(O)c(C)c3)s2)cc1 [Example 23-104] | 1
CCn1cnc2cc(NC(=O)OCc3sc(-c4ccco4)nc3C)ccc21 [Example 13-57] | 1
COc1ccc(CN(C)NC(=O)c2sc(-c3ccc(Cl)cc3C)nc2C)cc1OC [Example 16-17] | 1
COc1cc(C)ccc1-c1nc(C)c(NC(=O)OCc2ccc3ncsc3c2)s1 [Example 36-2] | 1
COc1ccc(/C=N/NC(=O)c2cc(-c3ccc(Cl)cc3OC)cn2C)cc1 [Example 23-168, 4-(4-Chloro-2-methoxyphenyl)-1-methyl-1H-pyrrole-2-carboxylic acid (4-methoxybenzylidene)hydrazide] | 1
CCn1nc(-c2ccc(C)cc2OC)cc1NC(=O)OCc1ccc2c(c1)nc1n2CCC1 [Example 9-262] | 0.025
Cn1nc(-c2ccccc2)cc1NC(=O)OCc1ccc2c(c1)ncn2C [Example 9-204] | 10
COc1ccc(NC(=O)OCc2cc(-c3ccc(C)cc3OC)nn2C)cc1F [Example 13-72] | 1
Cc1ccc(-c2nc(C)c(COC(=O)Nc3ccc4c(c3)nc3n4CCOC3)s2)c(C)c1 [Example 13-24] | 0.025
COc1cc(Cl)ccc1-c1cc(C(=O)N/N=C/c2ccc3c(c2)ncn3C)n(C)n1 [Example 21-25] | 0.1
CCc1nc(-c2ccc(C)cc2C)sc1NC(=O)OCc1ccc2c(c1)ncn2CC [Example 9-166] | 0.025
CCn1ncc2cc(COC(=O)Nc3sc(-c4ccc(Cl)cc4C)nc3C)ccc21 [Example 9-141] | 0.025
COc1ccccc1-c1nscc1NC(=O)OCc1ccc2c(c1)ncn2C [Example 45-6] | 1
CCn1cnc2cc(COC(=O)Nc3sc(-c4ccc(C)cc4)nc3C)ccc21 [Example 9-55] | 10
CCn1nc(-c2ccc(Cl)cc2OC)cc1COC(=O)Nc1ccc2c(c1)ncn2CC [Example 13-87] | 0.025

Compound | minimal effective concentration [µM]
CCn1nc(-c2ccc(Cl)cc2OC)cc1NC(=O)OCc1ccc2c(cnn2C)c1 [Example 9-281] | 0.025
COc1cc(C)ccc1-c1nc(C)c(NC(=O)OCc2ccc3c(c2)nc2n3CCN(C)C2)s1 [Example 38-2, [2-(2-Methoxy-4-methylphenyl)-4-methylthiazol-5-yl]carbamic acid 2-methyl-1,2,3,4-tetrahydrobenzo[4,5]imidazo[1,2-a]pyrazin-8-ylmethyl ester] | 10
CCn1cnc2cc(COC(=O)Nc3sc(-c4ncccc4C)nc3C)ccc21 [Example 9-196] | 10
COc1ccc(-c2cc(NC(=O)OCc3ccc4c(c3)ncn4C)n(C)n2)c(OC)c1 [Example 9-230] | 0.025
Cc1ccc(-c2nc(C)c(C(=O)N/N=C/c3ccc(O)c(C)c3)s2)c(C)c1 [Example 23-45] | 1
CCn1cnc2cc(COC(=O)Nc3cnc(-c4ccc(Cl)cc4OC)s3)ccc21 [Example 9-177] | 0.1
COc1cc(Cl)ccc1-c1nc(C)c(COC(=O)Nc2ccc3c(c2)nc2n3CCOC2)s1 [Example 13-23] | 1
CCc1nc(-c2ccc(F)cc2C)sc1COC(=O)Nc1ccc2c(c1)nc1n2CCOC1 [Example 13-150] | 0.025
COc1ccc(/C=N/NC(=O)c2sc(-c3cnccc3C)nc2C)cc1O [Example 23-135] | 1
CCn1cnc2cc(COC(=O)Nc3sc(-c4ccc(OC)cc4OC)nc3C)ccc21 [Example 9-61] | 0.00625
COc1ccc(CN(C)NC(=O)c2sc(-c3ccc(Cl)cc3OC)nc2C)cc1C [Example 16-23] | 1
CCc1ccccc1-c1nc(C)c(NC(=O)OCc2ccc3c(c2)ncn3C)s1 [Example 9-36] | 0.025
CCn1nc(-c2ccc(F)cc2OC)cc1NC(=O)OCc1ccc2c(c1)nc1n2CCC1 [Example 9-257] | 0.1
Cc1ccncc1-c1nc(C)c(C(=O)N/N=C/c2cc(C)c(O)c(C)c2)s1 [Example 23-136] | 1
CCn1ncc2cc(NC(=O)OCc3sc(-c4ccc(F)cc4C)nc3C)ccc21 [Example 13-44] | 0.1
Cc1nc(-c2ccc3c(c2)CCO3)sc1NC(=O)OCc1ccc2c(c1)ncn2C [Example 9-50] | 10
CCCn1cnc2cc(COC(=O)Nc3sc(-c4ccc(C)cc4OC)nc3C)ccc21 [Example 9-68] | 0.1
Cc1ccccc1-c1nc(C)c(NC(=O)OCc2ccc3c(c2)ncn3C)s1 [Example 9-33] | 0.025
CCn1cc2cc(NC(=O)OCc3cc(-c4ccc(Cl)cc4OC)nn3C)ccc2n1 [Example 13-133] | 0.00625
COc1ccc(/C=N/NC(=O)c2sc(-c3cccc(OC)c3OC)nc2C)cc1O [Example 23-24] | 10
Cc1nc(-c2ccc(Cl)cc2)sc1C(=O)N/N=C/c1ccc(OC(F)F)c(O)c1 [Example 23-115] | 1
COc1ccc(/C=N/NC(=O)c2cnc(-c3ccc(Cl)cc3)[nH]2)cc1O [Example 25-1, 2-(4-Chlorophenyl)-3H-imidazole-4-carboxylic acid[1-(3-hydroxy-4-methoxyphenyl)methylidene]hydrazide] | 10
Cc1cc(Cl)ccc1-c1nc(C)c(NC(=O)OCc2ccc3c(ccn3C)c2)s1 [Example 9-31] | 1
CCn1ncc2cc(COC(=O)Nc3csnc3-c3ccc(Cl)cc3OC)ccc21 [Example 45-7] | 0.1

Source: patent US9200008B2 (ASKA PHARMACEUTICAL CO., LTD., priority 2010, dated 2015)
